Assay results published in US10758534B2 (Vertex Pharmaceuticals Incorporated, priority 2014, dated 2020).

Biological target: T1, F508del (Homo sapiens, UniProt P13569, DEL508-508)
T1 construct: expressed in transfected cells
Assay: Protocol 1: membrane potential optical assay (FLIPR III, voltage sensing dye), identification of potentiator compounds
Assay type: cell-based
Settings: Table 3, compounds of Table 1
Procedure, shortened: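 NIH3T3 F508del cells, 27° C × 24 hrs; compound/DMSO pretreat → redistribution dye load → single forskolin addition with Cl⁻ gradient (gluconate-substituted bath, HEPES pH 7.4). FLIPR III membrane-potential fluorescence read.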

T1 sequence (P13569 with tags, fused parts or gaps DEL508-508): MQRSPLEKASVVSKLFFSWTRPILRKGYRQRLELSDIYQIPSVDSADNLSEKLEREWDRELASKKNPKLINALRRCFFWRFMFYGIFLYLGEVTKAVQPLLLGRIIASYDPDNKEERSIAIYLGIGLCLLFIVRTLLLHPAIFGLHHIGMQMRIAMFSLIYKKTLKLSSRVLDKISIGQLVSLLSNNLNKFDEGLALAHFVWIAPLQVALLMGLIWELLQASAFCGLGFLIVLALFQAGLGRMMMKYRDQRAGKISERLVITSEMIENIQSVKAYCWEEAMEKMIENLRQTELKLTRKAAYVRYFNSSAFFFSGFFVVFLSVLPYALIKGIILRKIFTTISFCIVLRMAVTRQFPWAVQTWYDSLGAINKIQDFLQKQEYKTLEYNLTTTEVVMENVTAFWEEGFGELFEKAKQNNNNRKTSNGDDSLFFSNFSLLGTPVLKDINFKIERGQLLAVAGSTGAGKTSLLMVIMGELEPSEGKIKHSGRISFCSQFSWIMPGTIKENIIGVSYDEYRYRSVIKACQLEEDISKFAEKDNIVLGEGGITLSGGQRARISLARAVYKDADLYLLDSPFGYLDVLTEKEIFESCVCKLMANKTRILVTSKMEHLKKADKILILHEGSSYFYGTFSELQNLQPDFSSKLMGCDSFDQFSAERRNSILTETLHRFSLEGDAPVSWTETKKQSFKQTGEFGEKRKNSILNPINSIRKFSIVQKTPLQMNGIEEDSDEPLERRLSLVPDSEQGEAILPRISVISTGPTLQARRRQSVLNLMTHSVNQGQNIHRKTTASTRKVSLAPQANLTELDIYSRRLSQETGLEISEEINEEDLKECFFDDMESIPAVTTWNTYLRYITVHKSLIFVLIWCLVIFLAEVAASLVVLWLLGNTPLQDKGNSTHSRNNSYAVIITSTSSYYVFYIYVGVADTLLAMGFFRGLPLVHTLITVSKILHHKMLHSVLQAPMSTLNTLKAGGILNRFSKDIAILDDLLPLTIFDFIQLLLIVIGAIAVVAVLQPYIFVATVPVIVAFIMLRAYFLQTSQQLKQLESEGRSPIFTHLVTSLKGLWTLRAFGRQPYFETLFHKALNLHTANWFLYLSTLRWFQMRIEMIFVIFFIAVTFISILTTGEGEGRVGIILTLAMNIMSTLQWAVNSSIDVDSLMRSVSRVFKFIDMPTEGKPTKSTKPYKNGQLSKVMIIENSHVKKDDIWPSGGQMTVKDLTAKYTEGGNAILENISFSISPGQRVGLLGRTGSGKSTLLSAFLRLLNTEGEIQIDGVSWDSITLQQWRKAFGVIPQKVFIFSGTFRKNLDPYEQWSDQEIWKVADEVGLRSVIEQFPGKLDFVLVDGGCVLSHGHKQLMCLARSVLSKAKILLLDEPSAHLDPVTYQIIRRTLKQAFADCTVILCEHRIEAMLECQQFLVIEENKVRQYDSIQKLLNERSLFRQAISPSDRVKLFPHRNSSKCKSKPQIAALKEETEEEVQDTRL

EC30 | SMILES
+++ (“+++” means <3 uM) | COc1cc(OC)cc(-c2ccc(C(=O)NS(=O)(=O)c3cccc(N)n3)c(Oc3c(C)cc(C)cc3C)n2)c1 [Compound 828, N-[(6-amino-2-pyridyl)sulfonyl]-6-(3,5-dimethoxyphenyl)-2-(2,4,6-trimethylphenoxy)pyridine-3-carboxamide]
+++ (“+++” means <3 uM) | Cc1cc(C)c(Oc2nc(-c3ccccc3C)ccc2C(=O)NS(=O)(=O)c2cccc(N)n2)c(C)c1 [Compound 1120, N-[(6-amino-2-pyridyl)sulfonyl]-6-(o-tolyl)-2-(2,4,6-trimethylphenoxy)pyridine-3-carboxamide]
+++ (“+++” means <3 uM) | CC(C)Oc1ccn(-c2ccc(C(=O)NS(=O)(=O)c3cccc(N)n3)c(N3C[C@@H](C)CC3(C)C)n2)n1 [Compound 1709, N-[(6-amino-2-pyridyl)sulfonyl]-6-(3-isopropoxypyrazol-1-yl)-2-[(4S)-2,2,4-trimethylpyrrolidin-1-yl]pyridine-3-carboxamide]
++ (“++” means between 3 uM and 10 uM) | C[C@@H]1CN(c2nc(C3CC(C)(C)CCC3O)ccc2C(=O)NS(=O)(=O)c2cccc(N)n2)C(C)(C)C1 (stereo partly drawn) [Compound 1439, N-[(6-amino-2-pyridyl)sulfonyl]-6-(2-hydroxy-5,5-dimethyl-cyclohexyl)-2-[(4S)-2,2,4-trimethylpyrrolidin-1-yl]pyridine-3-carboxamide]
++ (“++” means between 3 uM and 10 uM) | Cc1cc(C)c(Oc2nc(-c3ccc(C(C)(C)O)cc3)ccc2C(=O)NS(=O)(=O)c2cccc(N)n2)c(C)c1 [Compound 1147, N-[(6-amino-2-pyridyl)sulfonyl]-6-[4-(1-hydroxy-1-methyl-ethyl)phenyl]-2-(2,4,6-trimethylphenoxy)pyridine-3-carboxamide]
+++ (“+++” means <3 uM) | Cc1cc(C)c(CN2Cc3ccccc3C2(C)C(=O)NS(=O)(=O)c2ccccc2)c(C)c1 (stereo not shown) [Compound 873, N-(benzenesulfonyl)-1-methyl-2-[(2,4,6-trimethylphenyl)methyl]isoindoline-1-carboxamide]
+++ (“+++” means <3 uM) | COc1ccc(-c2ccc(C(=O)NS(=O)(=O)c3cccc(N)n3)c(Oc3c(C)cc(C)cc3C)n2)c(C)n1 [Compound 1212, N-[(6-amino-2-pyridyl)sulfonyl]-6-(6-methoxy-2-methyl-3-pyridyl)-2-(2,4,6-trimethylphenoxy)pyridine-3-carboxamide]
+++ (“+++” means <3 uM) | C[C@@H]1CN(c2nc(-c3ccc(C(F)(F)F)cc3)ccc2C(=O)NS(=O)(=O)c2ccc[nH]c2=O)C(C)(C)C1 [Compound 1799, N-[(2-oxo-1H-pyridin-3-yl)sulfonyl]-6-[4-(trifluoromethyl)phenyl]-2-[(4S)-2,2,4-trimethylpyrrolidin-1-yl]pyridine-3-carboxamide]
+++ (“+++” means <3 uM) | CCOc1cccc2c1CN(Cc1c(C)cc(C)cc1C)C2(C)C(=O)NS(=O)(=O)c1cccc(N)c1 (stereo not shown) [Compound 1454, N-(3-aminophenyl)sulfonyl-4-ethoxy-1-methyl-2-[(2,4,6-trimethylphenyl)methyl]isoindoline-1-carboxamide]
+++ (“+++” means <3 uM) | CC(C)Oc1ccc(-c2ccc(C(=O)NS(=O)(=O)c3cccc(N)n3)c(N3C[C@@H](C)CC3(C)C)n2)cn1 [Compound 811, N-[(6-amino-2-pyridyl)sulfonyl]-6-(6-isopropoxy-3-pyridyl)-2-[(4S)-2,2,4-trimethylpyrrolidin-1-yl]pyridine-3-carboxamide]
++ (“++” means between 3 uM and 10 uM) | COc1cccc(-c2ccc(C(=O)NS(=O)(=O)c3ccn[nH]3)c(N3[C@H](C)CC[C@@H]3C)n2)n1 [Compound 1236, 2-[(2S,5R)-2,5-dimethylpyrrolidin-1-yl]-6-(6-methoxy-2-pyridyl)-N-(1H-pyrazol-5-ylsulfonyl)pyridine-3-carboxamide]
+++ (“+++” means <3 uM) | CC(C)Oc1ccc(-c2ccc(C(=O)NS(=O)(=O)c3cccnc3N)c(N3C[C@@H](C)CC3(C)C)n2)cc1 [Compound 1903, N-[(2-amino-3-pyridyl)sulfonyl]-6-(4-isopropoxyphenyl)-2-[(4S)-2,2,4-trimethylpyrrolidin-1-yl]pyridine-3-carboxamide]
+++ (“+++” means <3 uM) | CC1CN(c2nc(C(C)(C)C)c(Br)cc2C(=O)NS(=O)(=O)c2cccc(N)n2)C(C)(C)C1 (stereo not shown) [Compound 1628, N-[(6-amino-2-pyridyl)sulfonyl]-5-bromo-6-tert-butyl-2-(2,2,4-trimethylpyrrolidin-1-yl)pyridine-3-carboxamide]
+++ (“+++” means <3 uM) | CCOc1ccc(Oc2cccc(S(=O)(=O)NC(=O)c3cccnc3N3CC(C)CC3(C)C)n2)cc1 (stereo not shown) [Compound 1924, N—[[6-(4-ethoxyphenoxy)-2-pyridyl]sulfonyl]-2-(2,2,4-trimethylpyrrolidin-1-yl)pyridine-3-carboxamide]
+++ (“+++” means <3 uM) | COc1cccc(-c2nc(N3CC(C)CC3(C)C)c(C(=O)NS(=O)(=O)c3cccc(N)n3)cc2C)c1 (stereo not shown) [Compound 833, N-[(6-amino-2-pyridyl)sulfonyl]-6-(3-methoxyphenyl)-5-methyl-2-(2,2,4-trimethylpyrrolidin-1-yl)pyridine-3-carboxamide]
+++ (“+++” means <3 uM) | CCC1(C)CCCN(c2nc(-c3ccc(OC(C)C)nc3)ccc2C(=O)NS(=O)(=O)c2cccc(N)n2)C1 (stereo not shown) [Compound 1341, N-[(6-amino-2-pyridyl)sulfonyl]-2-(3-ethyl-3-methyl-1-piperidyl)-6-(6-isopropoxy-3-pyridyl)pyridine-3-carboxamide]
+ (“+” means greater than 10 uM) | CCOc1ccc(-c2ccc(C(=O)NS(=O)(=O)c3ccc[nH]c3=O)c(Oc3c(C)cc(C)cc3C)n2)cn1 [Compound 932, 6-(6-ethoxy-3-pyridyl)-N-[(2-oxo-1H-pyridin-3-yl)sulfonyl]-2-(2,4,6-trimethylphenoxy)pyridine-3-carboxamide]
++ (“++” means between 3 uM and 10 uM) | CCOc1cc(F)cc(-c2ccc(C(=O)NS(=O)(=O)c3ccc[nH]c3=O)c(Oc3c(C)cc(C)cc3C)n2)c1 [Compound 835, 6-(3-ethoxy-5-fluoro-phenyl)-N-[(2-oxo-1H-pyridin-3-yl)sulfonyl]-2-(2,4,6-trimethylphenoxy)pyridine-3-carboxamide]

SMILES | EC30
CC(=O)Nc1cccc(S(=O)(=O)NC(=O)c2ccc(-c3cc(F)cc(OCC(C)C)c3)nc2N2C[C@@H](C)CC2(C)C)n1 [Compound 1652, N-[(6-acetamido-2-pyridyl)sulfonyl]-6-(3-fluoro-5-isobutoxy-phenyl)-2-[(4S)-2,2,4-trimethylpyrrolidin-1-yl]pyridine-3-carboxamide] | +++ (“+++” means <3 uM)
CC(C)COc1cnn(-c2ccc(C(=O)NS(=O)(=O)c3ccccc3)c(N3C[C@@H](C)CC3(C)C)n2)c1 [Compound 1912, N-(benzenesulfonyl)-6-(4-isobutoxypyrazol-1-yl)-2-[(4S)-2,2,4-trimethylpyrrolidin-1-yl]pyridine-3-carboxamide] | +++ (“+++” means <3 uM)
COCC1CCCN(c2nc(-c3cc(F)cc(OCC(C)C)c3)ccc2C(=O)NS(=O)(=O)c2ccn[nH]2)C1 (stereo not shown) [Compound 1028, 6-(3-fluoro-5-isobutoxy-phenyl)-2-[3-(methoxymethyl)-1-piperidyl]-N-(1H-pyrazol-5-ylsulfonyl)pyridine-3-carboxamide] | ++ (“++” means between 3 uM and 10 uM)
CC(C)COc1cc(F)cc(-c2ccc(C(=O)NS(=O)(=O)c3cccc(N)n3)c(OCCC3CCOCC3)n2)c1 [Compound 1579, N-[(6-amino-2-pyridyl)sulfonyl]-6-(3-fluoro-5-isobutoxy-phenyl)-2-(2-tetrahydropyran-4-ylethoxy)pyridine-3-carboxamide] | +++ (“+++” means <3 uM)
Cc1cn(-c2ccc(C(=O)NS(=O)(=O)c3cccc(N)n3)c(N3C[C@@H](C)CC3(C)C)n2)nc1OCC(C)C [Compound 1532, N-[(6-amino-2-pyridyl)sulfonyl]-6-(3-isobutoxy-4-methyl-pyrazol-1-yl)-2-[(4S)-2,2,4-trimethylpyrrolidin-1-yl]pyridine-3-carboxamide] | +++ (“+++” means <3 uM)
CC(C)COc1cc(F)cc(-c2ccc(C(=O)NS(=O)(=O)c3cccc(N)n3)c(N(C)CC3(C)CC3)n2)c1 [Compound 1009, N-[(6-amino-2-pyridyl)sulfonyl]-6-(3-fluoro-5-isobutoxy-phenyl)-2-[methyl-[(1-methylcyclopropyl)methyl]amino]pyridine-3-carboxamide] | +++ (“+++” means <3 uM)
CC(C)COc1cc(-c2ccc(C(=O)NS(=O)(=O)c3cccc(N)n3)c(N3CC(C)CC3(C)C)n2)ccn1 (stereo not shown) [Compound 1192, N-[(6-amino-2-pyridyl)sulfonyl]-6-(2-isobutoxy-4-pyridyl)-2-(2,2,4-trimethylpyrrolidin-1-yl)pyridine-3-carboxamide] | +++ (“+++” means <3 uM)
CC(C)COc1cc(F)cc(-c2ccc(C(=O)NS(=O)(=O)c3cccc(N)n3)c(N3CC4CC(C4)C3)n2)c1 [Compound 1529, N-[(6-amino-2-pyridyl)sulfonyl]-2-(3-azabicyclo[3.1.1]heptan-3-yl)-6-(3-fluoro-5-isobutoxy-phenyl)pyridine-3-carboxamide] | +++ (“+++” means <3 uM)
CC(C)COc1ccn(-c2ccc(C(=O)NS(=O)(=O)c3cccc(N)n3)c(N3C[C@@H](C)CC3(C)C)n2)n1 [Compound 1620, N-[(6-amino-2-pyridyl)sulfonyl]-6-(3-isobutoxypyrazol-1-yl)-2-[(4S)-2,2,4-trimethylpyrrolidin-1-yl]pyridine-3-carboxamide] | +++ (“+++” means <3 uM)
CC(C)Oc1ccc(-c2ccc(C(=O)NS(=O)(=O)c3cccc(N)n3)c(N3C4CCC3CC4)n2)cn1 [Compound 903, N-[(6-amino-2-pyridyl)sulfonyl]-2-(7-azabicyclo[2.2.1]heptan-7-yl)-6-(6-isopropoxy-3-pyridyl)pyridine-3-carboxamide] | ++ (“++” means between 3 uM and 10 uM)
